Source: PMC7419507, “In vitro Cas9-assisted editing of modular polyketide synthase genes to produce desired natural product derivatives” (Nature Communications, 2020)
Where “and” joins values, the source holds several entries; their conditions need not be identical. Equal values may be shown once.

Experiments:
Type in all cases: cell-based
[1] = system: malignant pleural mesothelioma MESO-1 cells; experiment: Cytotoxicity assay (CellTiter-Glo, 72 h), MESO-1; details: raw replicate data
Experimental: (§1) Jurkat cells were cultured in RPMI1640 medium supplemented with 10% foetal bovine serum, penicillin (50 U/ml), streptomycin (50 μg/ml), and Glutamax. SKOV-3 cells were cultured in DMEM medium supplemented with 10% fetal bovine serum, penicillin (50 U/ml), and streptomycin (50 μg/ml). MESO-1 cells were cultured in RPMI1640 medium supplemented with 10% fetal bovine serum, penicillin (50 U/ml), and streptomycin (50 μg/ml). All cell lines were seeded in a 384-well plate at a density of 1000 cells/well in 20 μl of media and incubated at 37 °C in a humidified incubator with 5% CO2. After 4 h, 2-fold dilution samples resolved in DMSO were added to the cell culture at the concentration of 0.5% (0.1 μl) and incubated for 72 h. Cell viabilities were measured using a CellTiter-Glo luminescent cell viability assay and EnVision multilabel plate reader.

T lymphoma Jurkat cells = experiment: Cytotoxicity assay (CellTiter-Glo, 72 h), Jurkat; details: raw data (replicates)
Experimental: as §1

[2] = system: human ovarian adenocarcinoma SKOV-3 cells; experiment: Cytotoxicity assay (CellTiter-Glo, 72 h), SKOV-3; details: raw replicate data
Experimental: as §1

[3] = system: Jurkat, SKOV-3 and MESO-1 cells; experiment: Cytotoxicity assay, statements for all tested cell lines together; details: against the tested cell lines (Jurkat, SKOV-3, MESO-1)
Experimental: as §1

FKBP12 and mTOR = molecular target: T1, FKBP12 and mTOR (Homo sapiens, UniProt P42345+P62942); experiment: Fluoppi analysis: induction of FKBP12-mTOR complex formation in transfected HeLa cells; details: for Foci intensity: raw data, one replicate per line
T1 construct: host or cells: HeLa cells
Experimental: Fluoppi harbours a tetrameric fluorescent protein hAG tag and an oligomeric assembly helper Ash tag to create detectable fluorescent foci in cells when there are interactions between two proteins fused to each tag[32].
HeLa cells were maintained in DMEM (Fujifilm Wako, Osaka, Japan) supplemented with 10% FBS (Thermo Fisher Scientific, MA, USA) and 1% of Penicillin-Streptomycin (Thermo Fisher Scientific) in a humidified incubator with 5% CO2 at 37 °C. Harvested cells were plated at 1 × 10^6 cells/well in 6-well plate and incubated for 6 h. Then each 1.25 µg of phAG-mTOR and pAsh-FKBP12 (Medical and Biological Laboratories Co., Ltd., Aichi, Japan) was co-transfected with Lipofectamine 2000 reagent (Thermo Fisher Scientific) overnight. Next day, transfected cells were harvested and seeded in 384-well optical-bottom microplate (PerkinElmer, MA, USA) at a density of 3000 cells/well. After the 24 h incubation at 37 °C, cells were treated with different concentrations of compounds for 1 h. Cells were then fixed with 4% paraformaldehyde and stained with 1 µg/ml of Hoechst33342 (Thermo Fisher Scientific). Cell images of 9 visual fields/well were acquired with ×20 objective lens in Opera Phenix High-Content Screening System (PerkinElmer) and analysed by Harmony4.9 software (PerkinElmer). Because protein-protein interactions are quantified by measuring the aggregation of fluorescent elements in foci, fluorescent intensity in foci was normalised by total fluorescent intensity in each cell. EC50 values were calculated using TIBCO Spotfire 10.3 software (PerkinElmer).

T1 sequence (P42345 2025-2114 limits assumed): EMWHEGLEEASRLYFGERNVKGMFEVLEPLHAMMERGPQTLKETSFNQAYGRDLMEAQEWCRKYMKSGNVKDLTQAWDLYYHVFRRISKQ
T1 sequence (P62942 whole entry): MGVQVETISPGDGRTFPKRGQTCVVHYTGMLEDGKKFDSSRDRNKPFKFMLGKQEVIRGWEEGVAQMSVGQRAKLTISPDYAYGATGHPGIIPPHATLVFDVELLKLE

PPI-inducing (binding enhancing) activity between FKBP12 and mTOR compared with rapamycin (1), in words (FKBP12 and mTOR; Fluoppi): relatively weaker activities
EC50 (FKBP12 and mTOR; Fluoppi, HeLa cells, 1 h treatment, three independent biological replicates, read-out: EC50, induction of the formation of FKBP-mTOR complex): 21 nM
Foci intensity (FKBP12 and mTOR; conc 9.53674e-5 uM): 0.02938 and 0.02062 and 0.01935
Foci intensity (FKBP12 and mTOR; conc 0.000190735 uM): 0.01089 and 0.04735 and 0.006372
Foci intensity (FKBP12 and mTOR; conc 0.00038147 uM): 0.02158 and 0.01349 and 0.009009
Foci intensity (FKBP12 and mTOR; conc 0.000762939 uM): 0.009136 and 0.02959 and 0.01473
Foci intensity (FKBP12 and mTOR; conc 0.00152588 uM): 0.01663 and 0.006313 and 0.01798
Foci intensity (FKBP12 and mTOR; conc 0.00305176 uM): 0.01047 and 0.01326 and 0.01713
Foci intensity (FKBP12 and mTOR; conc 0.00610352 uM): 0.03111 and 0.03528 and 0.05091
Foci intensity (FKBP12 and mTOR; conc 0.012207 uM): 0.1191 and 0.0902 and 0.07426
Foci intensity (FKBP12 and mTOR; conc 0.0244141 uM): 0.2308 and 0.2676 and 0.239
Foci intensity (FKBP12 and mTOR; conc 0.0488281 uM): 0.3046 and 0.3291 and 0.3775
Foci intensity (FKBP12 and mTOR; conc 0.0976562 uM): 0.4136 and 0.3574 and 0.3612
Foci intensity (FKBP12 and mTOR; conc 0.195312 uM): 0.3726 and 0.4258 and 0.4147
Foci intensity (FKBP12 and mTOR; conc 0.390625 uM): 0.4457 and 0.3806 and 0.4256
Foci intensity (FKBP12 and mTOR; conc 0.78125 uM): 0.3848 and 0.4238 and 0.4902
Foci intensity (FKBP12 and mTOR; conc 1.5625 uM): 0.4004 and 0.3924 and 0.3797
Foci intensity (FKBP12 and mTOR; conc 3.125 uM): 0.374 and 0.3995 and 0.4137
Foci intensity (FKBP12 and mTOR; conc 6.25 uM): 0.4751 and 0.3772 and 0.3106
Foci intensity (FKBP12 and mTOR; conc 12.5 uM): 0.4864 and 0.3577 and 0.3572
Foci intensity (FKBP12 and mTOR; conc 25 uM): 0.403 and 0.3428 and 0.3243
Foci intensity (FKBP12 and mTOR; conc 50 uM): 0.4648 and 0.4194 and 0.3824
Compound: COC1CC2CCC(C)C(O)(O2)C(=O)C(=O)N2CCCCC2C(=O)OC(C(C)CC2CCC(O)C(OC)C2)CC=C(C)C(O)CC(=O)C(C)CC(C)C=CC=CC=C1C (centres unmarked) [Compound 10]
MESO1 viability (%) ([1]; conc 9.53674e-5 uM): 100.8% and 105.3% and 105.4%
MESO1 viability (%) ([1]; conc 0.000190735 uM): 95.7% and 102.9% and 100.7%
MESO1 viability (%) ([1]; conc 0.00038147 uM): 104.6% and 103.5% and 110.6%
MESO1 viability (%) ([1]; conc 0.000762939 uM): 99.4% and 101.6% and 106.3%
MESO1 viability (%) ([1]; conc 0.00152588 uM): 103.6% and 107.9% and 110.6%
MESO1 viability (%) ([1]; conc 0.00305176 uM): 103.7% and 97.7% and 102.1%
MESO1 viability (%) ([1]; conc 0.00610352 uM): 102.5% and 110.7% and 106.5%
MESO1 viability (%) ([1]; conc 0.012207 uM): 100.1% and 112.2% and 102.4%
MESO1 viability (%) ([1]; conc 0.0244141 uM): 100.1% and 101.2% and 104.6%
MESO1 viability (%) ([1]; conc 0.0488281 uM): 99.1% and 97.8% and 101.7%
MESO1 viability (%) ([1]; conc 0.0976562 uM): 102.3% and 104.8% and 99.5%
MESO1 viability (%) ([1]; conc 0.195312 uM): 92.8% and 95.2% and 98.3%
MESO1 viability (%) ([1]; conc 0.390625 uM): 100.3% and 99.6% and 94.3%
MESO1 viability (%) ([1]; conc 0.78125 uM): 88.5% and 91.5% and 91.8%
MESO1 viability (%) ([1]; conc 1.5625 uM): 91.5% and 95.3% and 90.6%
MESO1 viability (%) ([1]; conc 3.125 uM): 85.5% and 90.0% and 83.9%
MESO1 viability (%) ([1]; conc 6.25 uM): 92.1% and 98.3% and 96.6%
MESO1 viability (%) ([1]; conc 12.5 uM): 90.4% and 90.6% and 90.0%
MESO1 viability (%) ([1]; conc 25 uM): 77.8% and 73.6% and 73.2%
MESO1 viability (%) ([1]; conc 50 uM): 53.8% and 51.9% and 42.0%
Jurkat viability (%) (T lymphoma Jurkat cells; conc 9.53674e-5 uM): 100.6% and 99.4% and 103.1%
Jurkat viability (%) (T lymphoma Jurkat cells; conc 0.000190735 uM): 101.6% and 102.5% and 98.5%
Jurkat viability (%) (T lymphoma Jurkat cells; conc 0.00038147 uM): 98.4% and 99.9%
Jurkat viability (%) (T lymphoma Jurkat cells; conc 0.000762939 uM): 100.1% and 103.3% and 99.4%
Jurkat viability (%) (T lymphoma Jurkat cells; conc 0.00152588 uM): 103.7% and 95.3% and 102.7%
Jurkat viability (%) (T lymphoma Jurkat cells; conc 0.00305176 uM): 99.4% and 102.2% and 96.7%
Jurkat viability (%) (T lymphoma Jurkat cells; conc 0.00610352 uM): 103.1% and 102.2% and 98.6%
Jurkat viability (%) (T lymphoma Jurkat cells; conc 0.012207 uM): 106.4% and 103.4% and 103.7%
Jurkat viability (%) (T lymphoma Jurkat cells; conc 0.0244141 uM): 106.5% and 107.7% and 103.0%
Jurkat viability (%) (T lymphoma Jurkat cells; conc 0.0488281 uM): 101.8% and 99.9% and 103.2%
Jurkat viability (%) (T lymphoma Jurkat cells; conc 0.0976562 uM): 106.2% and 107.8% and 101.3%
Jurkat viability (%) (T lymphoma Jurkat cells; conc 0.195312 uM): 97.6% and 99.7% and 92.3%
Jurkat viability (%) (T lymphoma Jurkat cells; conc 0.390625 uM): 92.6% and 88.6% and 95.1%
Jurkat viability (%) (T lymphoma Jurkat cells; conc 0.78125 uM): 82.4% and 83.0% and 85.1%
Jurkat viability (%) (T lymphoma Jurkat cells; conc 1.5625 uM): 79.7% and 82.1% and 77.6%
Jurkat viability (%) (T lymphoma Jurkat cells; conc 3.125 uM): 74.2% and 71.9% and 69.9%
Jurkat viability (%) (T lymphoma Jurkat cells; conc 6.25 uM): 76.5% and 74.7% and 74.5%
Jurkat viability (%) (T lymphoma Jurkat cells; conc 12.5 uM): 63.4% and 64.1% and 59.5%
Jurkat viability (%) (T lymphoma Jurkat cells; conc 25 uM): 29.8% and 32.1% and 29.9%
Jurkat viability (%) (T lymphoma Jurkat cells; conc 50 uM): 2.7% and 3.5% and 3.4%
SKOV3 viability (%) ([2]; conc 9.53674e-5 uM): 102.2% and 102.6% and 104.7%
SKOV3 viability (%) ([2]; conc 0.000190735 uM): 89.9% and 100.2% and 100.4%
SKOV3 viability (%) ([2]; conc 0.00038147 uM): 103.4% and 105.0% and 103.9%
SKOV3 viability (%) ([2]; conc 0.000762939 uM): 100.5% and 98.4% and 99.4%
SKOV3 viability (%) ([2]; conc 0.00152588 uM): 106.0% and 105.3%
SKOV3 viability (%) ([2]; conc 0.00305176 uM): 103.5% and 101.1% and 97.3%
SKOV3 viability (%) ([2]; conc 0.00610352 uM): 103.4% and 105.6% and 104.9%
SKOV3 viability (%) ([2]; conc 0.012207 uM): 103.7% and 98.9% and 95.6%
SKOV3 viability (%) ([2]; conc 0.0244141 uM): 104.7% and 103.8% and 99.6%
SKOV3 viability (%) ([2]; conc 0.0488281 uM): 100.2% and 99.1% and 100.0%
SKOV3 viability (%) ([2]; conc 0.0976562 uM): 104.8% and 104.3% and 100.1%
SKOV3 viability (%) ([2]; conc 0.195312 uM): 95.4% and 97.0% and 94.0%
SKOV3 viability (%) ([2]; conc 0.390625 uM): 97.7% and 103.0% and 102.9%
SKOV3 viability (%) ([2]; conc 0.78125 uM): 93.0% and 94.9% and 92.8%
SKOV3 viability (%) ([2]; conc 1.5625 uM): 96.7% and 99.9% and 92.6%
SKOV3 viability (%) ([2]; conc 3.125 uM): 90.3% and 92.8% and 92.7%
SKOV3 viability (%) ([2]; conc 6.25 uM): 95.7% and 97.5% and 89.4%
SKOV3 viability (%) ([2]; conc 12.5 uM): 93.5% and 97.4% and 91.5%
SKOV3 viability (%) ([2]; conc 25 uM): 91.8% and 89.5% and 94.8%
SKOV3 viability (%) ([2]; conc 50 uM): 48.8% and 50.2% and 51.9%
Concentration at which cytotoxic activities were shown [3]: over 10 µM
